Read-outs that look alike come from different tables or passages of the source.
Tests used:
[1] = target: T1, human muscle glycogen phosphorylase a (HMGPa) (Homo sapiens, UniProt P11217); test: GPa activity assay, reverse direction (inorganic phosphate release from glucose-1-phosphate), human muscle isoform; format: biochemical
T1 construct: made in house; host or cells: E. coli strain XL-1 Blue (plasmid pKK233-2)
T1 sequence (P11217 2-842 limits assumed): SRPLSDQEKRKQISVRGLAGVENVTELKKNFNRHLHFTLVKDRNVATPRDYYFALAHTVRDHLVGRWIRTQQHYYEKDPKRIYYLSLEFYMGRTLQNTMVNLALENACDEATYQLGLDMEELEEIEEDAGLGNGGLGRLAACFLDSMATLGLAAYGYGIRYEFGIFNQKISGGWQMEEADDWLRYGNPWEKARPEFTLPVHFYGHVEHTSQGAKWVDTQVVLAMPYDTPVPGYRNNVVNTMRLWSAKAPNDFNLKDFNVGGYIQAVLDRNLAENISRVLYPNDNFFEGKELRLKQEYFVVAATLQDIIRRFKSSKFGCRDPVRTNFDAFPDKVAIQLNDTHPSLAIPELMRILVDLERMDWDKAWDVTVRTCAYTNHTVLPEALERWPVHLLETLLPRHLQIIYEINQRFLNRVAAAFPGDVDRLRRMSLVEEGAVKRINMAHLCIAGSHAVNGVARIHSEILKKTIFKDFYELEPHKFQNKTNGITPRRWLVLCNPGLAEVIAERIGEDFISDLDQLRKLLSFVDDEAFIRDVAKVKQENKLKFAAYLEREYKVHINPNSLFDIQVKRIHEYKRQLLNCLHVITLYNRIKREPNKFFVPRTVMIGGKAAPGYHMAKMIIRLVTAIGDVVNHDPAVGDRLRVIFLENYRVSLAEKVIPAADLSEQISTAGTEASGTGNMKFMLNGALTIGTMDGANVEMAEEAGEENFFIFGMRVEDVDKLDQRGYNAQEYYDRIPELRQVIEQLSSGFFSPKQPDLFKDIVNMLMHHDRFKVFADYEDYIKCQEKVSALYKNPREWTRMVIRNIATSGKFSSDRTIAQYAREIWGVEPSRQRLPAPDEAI
Procedure: (§1) All reactions are run in triplicate in 96-well microtiter plates and the change in absorbance due to formation of the reaction product is measured at the wavelength specified below in a MCC/340 MKII Elisa Reader (Lab Systems, Finland), connected to a Titertech Microplate Stacker (ICN Biomedical Co, Huntsville, Ala.).
(§2) Buffer B is at pH 7.2 and contains 50 mM HEPES, 100 mM KCl, 2.5 mM EGTA, 2.5 mM MgCl2 and 0.5 mM dithiothreitol. […] After a 20 minute incubation at room temperature, the absorbance is measured at 620 nm.

[2] = target: T2, human liver glycogen phosphorylase a (HLGPa) (Homo sapiens, UniProt P06737); test: GPa activity assay, reverse direction (inorganic phosphate release from glucose-1-phosphate), human liver isoform; format: biochemical
T2 construct: made in house; host or cells: E. coli XL-1 Blue (pKK233-2) or Sf9 insect cells (pBlueBac III baculovirus)
T2 sequence (P06737 2-847 limits assumed): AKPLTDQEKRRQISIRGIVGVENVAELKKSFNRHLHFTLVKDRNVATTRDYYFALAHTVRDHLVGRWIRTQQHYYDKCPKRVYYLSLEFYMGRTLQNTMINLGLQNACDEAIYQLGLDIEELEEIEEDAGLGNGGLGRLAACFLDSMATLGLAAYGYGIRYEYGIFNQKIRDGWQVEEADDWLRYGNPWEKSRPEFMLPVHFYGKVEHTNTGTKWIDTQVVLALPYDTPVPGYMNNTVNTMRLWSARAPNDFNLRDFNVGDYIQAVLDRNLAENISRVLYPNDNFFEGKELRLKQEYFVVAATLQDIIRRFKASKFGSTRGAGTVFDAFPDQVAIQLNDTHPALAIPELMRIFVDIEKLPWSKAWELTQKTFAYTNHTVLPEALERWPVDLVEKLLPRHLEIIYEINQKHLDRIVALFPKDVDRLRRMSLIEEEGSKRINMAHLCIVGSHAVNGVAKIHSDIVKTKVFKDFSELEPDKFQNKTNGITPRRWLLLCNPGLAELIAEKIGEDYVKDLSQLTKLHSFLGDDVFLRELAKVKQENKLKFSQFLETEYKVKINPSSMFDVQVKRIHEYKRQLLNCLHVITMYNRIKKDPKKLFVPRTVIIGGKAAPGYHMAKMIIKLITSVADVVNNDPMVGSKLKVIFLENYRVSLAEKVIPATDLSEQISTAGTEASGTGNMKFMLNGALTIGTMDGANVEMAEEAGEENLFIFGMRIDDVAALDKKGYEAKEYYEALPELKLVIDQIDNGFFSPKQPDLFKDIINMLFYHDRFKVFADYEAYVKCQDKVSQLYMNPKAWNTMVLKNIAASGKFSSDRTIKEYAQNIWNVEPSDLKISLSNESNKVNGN
Procedure: as §1, §2

rabbit isolated heart [3] = test: Cardioprotection (reduction of infarcted myocardium) in isolated, retrogradely perfused (Langendorff) rabbit heart after regional ischemia and reperfusion; parameters: species or system Male New Zealand White rabbits; settings: for Infarct Area/Area-at-Risk (%IA/AAR): standard error in own column, control 63.9
Description: Cardioprotection, as indicated by a reduction in infarcted myocardium, can be induced pharmacologically using adenosine receptor agonists in isolated, retrogradely perfused rabbit hearts as an in vitro model of myocardial ischemic preconditioning (Liu et al., Cardiovasc. Res., 28:1057-1061, 1994). […] The exact methodology is described below.
The protocol used for these experiments closely follows that described by Liu et al., Cardiovasc. Res., 28:1057-1061, 1994. Male New Zealand White rabbits (3-4 kg) are anesthetized with sodium pentobarbital (30 mg/kg, i.v.). After deep anesthesia is achieved (determined by the absence of an ocular blink reflex) the animal is intubated and ventilated with 100% O2 using a positive pressure ventilator. A left thoracotomy is performed, the heart exposed, and a snare (2-0 silk) is placed loosely around a branch of the left anterior descending coronary artery, approximately 2/3 of the distance towards the apex of the heart. The heart is removed from the chest and rapidly (<30 sec) mounted on a Langendorff apparatus. The heart is retrogradely perfused via the aorta in a non-recirculating manner with a modified Krebs solution (NaCl 118.5 mM, KCl 4.7 mM, Mg SO4 1.2 mM, KH2 PO4 1.2 mM, NaHCO3 24.8 mM, CaCl2 2.5 mM, and glucose 10 mM), at a constant pressure of 80 mmHg and a temperature of 37° C. […] Heart rate and left ventricular pressures are determined via a latex balloon which is inserted in the left ventricle and connected by stainless steel tubing to a pressure transducer. […] Perfusate flow rates are routinely determined throughout the experimental period. […]
At the end of the 120 min reperfusion period, the coronary artery snare is tightened, and a 0.5% suspension of fluorescent zinc cadmium sulfate particles ([…]) is perfused through the heart; this stains all of the myocardium, except that area at risk for infarct development (area-at-risk). […] The infarcted area (no stain) and the area-at-risk (no fluorescent particles) are calculated for each slice of left ventricle using a precalibrated image analyzer. […]

rabbit isolated heart [4] = settings: Liu et al., Cardiovasc. Res., 28:1057-1061, 1994; cited from earlier work
[5] = reverse direction assay, HLGPa, read-out: HLGPa IC50

Which results are given for `CN(CCO)C(=O)[C@H](O)[C@H](Cc1ccccc1)NC(=O)c1cc2cc(Cl)ccc2[nH]1` [5-Chloro-1H-indole-2-carboxylic acid ((1S)-{(R)-hydroxy-[(2-hydroxy-ethyl)methyl-carbamoyl]-methyl}-2-phenyl-ethyl)-amide]?
IC50 [1]: 0.02 µM; IC50 [2, 5]: 0.152 µM

What does the source list for `CN(C)C(=O)[C@H](O)[C@H](Cc1ccccc1)NC(=O)c1cc2cc(Cl)ccc2[nH]1` [5-Chloro-1H-indole-2-carboxylic acid [(1S)-((R)-hydroxy-dimethylcarbamoyl-methyl)-2-phenyl-ethyl]-amide]?
IC50 [1]: 0.155 µM; IC50 [2]: 0.108 µM

With `CON(C)C(=O)[C@H](O)[C@H](Cc1ccccc1)NC(=O)c1cc2cc(Cl)ccc2[nH]1` [5-Chloro-1H-indole-2-carboxylic acid {(1S)-[(R)-hydroxy-(methoxy-methylcarbamoyl)-methyl]-2-phenyl-ethyl}-amide] as the compound, how does the IC50 [1] read?
The IC50 was 0.11 µM.

What about the IC50 [2, 5] of the same compound?
The IC50 was 0.051 µM.

For `O=C(N[C@@H](Cc1ccccc1)C(=O)N1CC(O)C1)c1cc2cc(Cl)ccc2[nH]1` [5-chloro-1H-indole-2-carboxylic acid [(1S)-benzyl-2-(3-hydroxy-azetidin-1-yl)-2-oxo-ethyl]-amide], which “cardioprotection relative to the control group” value (rabbit isolated heart [3]; 5 μM) is on record?
The value was “significant cardioprotection”.

What about the “Infarct Area/Area-at-Risk (%IA/AAR)” value (rabbit isolated heart [3]; 5 μM, perfused from 30 min before 30 min regional ischemia through 120 min reperfusion, n=6) of the same compound?
Its value is 31.4%.

With `Nc1ccc(CCNc2ncnc3c2ncn3[C@@H]2O[C@H](CO)[C@@H](O)[C@H]2O)cc1` [APNEA, N^6-[2-(4-aminophenyl)ethyl]adenosine, reference compound] as the compound, how does the “Infarct Area/Area-at-Risk (%IA/AAR)” value (rabbit isolated heart [3]; 500 nM, perfused 5 min, then 10 min drug-free, before 30 min ischemia and 120 min reperfusion, n=9) read?
Its value is 19.0%.

What about the “pharmacologically induced cardioprotection in the rabbit isolated heart” value (rabbit isolated heart [4]) of the same compound?
The value was “shown to pharmacologically induce cardioprotection”.
